pKi: −log10 of the molar value.
biological target: T1, human histamine H4 receptor (Homo sapiens, UniProt Q9H3N8); assay: Binding Assay on Recombinant Human Histamine H4 Receptor; conditions: competition binding with 3H-histamine (5 nM; KD 5 nM), membranes of SK-N-MC or COS7 cells expressing human H4 receptor; average of results; > = highest value tested
T1 construct: expressed in transfected cells; host or cells: SK-N-MC cells or COS7 cells, transient transfection with pH4R; cell membranes
Procedure, shortened: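 Membranes from SK-N-MC or COS7 cells transiently transfected with H4R incubated 45 min at room temperature with ³H-histamine; nonspecific binding defined with 10,000 nM histamine. Filtration and scintillation counting. Ki from competition with 5 nM ³H-histamine, using a KD of 5 nM.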

pKi | SMILES
5.63 | Cc1cc(Cl)cc2[nH]c(-c3cccc4c3ccn4CCCCC3CCNCC3)nc12 [Example 104, 6-Chloro-4-methyl-2-[1-(4-piperidin-4-yl-butyl)-1H-indol-4-yl]-1H-benzoimidazole]
5.58 | CC(C)(C)c1ccc2[nH]c(-c3cccc4c3ccn4CCCCC3CCNCC3)nc2c1 [Example 105, 5-tert-Butyl-2-[1-(4-piperidin-4-yl-butyl)-1H-indol-4-yl]-1H-benzoimidazole]
5.58 | Cc1ccc2[nH]c(-c3cccc4c3ccn4CCCCC3CCNCC3)nc2c1C [Example 106, 6,7-Dimethyl-2-[1-(4-piperidin-4-yl-butyl)-1H-indol-4-yl]-1H-benzoimidazole]
< 5.00 | Cc1cccc2[nH]c(-c3ccc4ccn(CCCCC5CCNCC5)c4c3)nc12 [Example 107, 4-Methyl-2-[1-(4-piperidin-4-yl-butyl)-1H-indol-6-yl]-1H-benzoimidazole]
5.70 | Cc1cc(Cl)cc2[nH]c(-c3ccc4ccn(CCCCC5CCNCC5)c4c3)nc12 [Example 108]
5.57 | CC(C)(C)c1ccc2[nH]c(-c3ccc4ccn(CCCCC5CCNCC5)c4c3)nc2c1 [Example 109, 5-tert-Butyl-2-[1-(4-piperidin-4-yl-butyl)-1H-indol-6-yl]-1H-benzoimidazole]
5.48 | Fc1ccc2[nH]c(-c3cccc4c3ccn4CCCCC3CCNCC3)nc2c1F [Example 110, 4,5-Difluoro-2-[1-(4-piperidin-4-yl-butyl)-1H-indol-4-yl]-1H-benzoimidazole]
6.32 | Cc1cccc2[nH]c(-c3ccc4c(ncn4CCCC4CCNCC4)c3C)nc12 [Example 111, 4,4′-Dimethyl-1′-(3-piperidin-4-yl-propyl)-1H,1′H-[2,5′]bibenzoimidazolyl]
6.60 | Cc1cc(F)cc2[nH]c(-c3ccc4c(ncn4CCCC4CCNCC4)c3C)nc12 [Example 112, 6-Fluoro-4,4′-dimethyl-1′-(3-piperidin-4-yl-propyl)-1H,1′H-[2,5′]bibenzoimidazolyl]
6.78 | Cc1c(Cl)ccc2[nH]c(-c3ccc4c(ncn4CCCC4CCNCC4)c3C)nc12 [Example 113, 5-Chloro-4,4′-dimethyl-1′-(3-piperidin-4-yl-propyl)-1H,1′H-[2,5′]bibenzoimidazolyl]
6.69 | Cc1c(F)ccc2[nH]c(-c3ccc4c(ncn4CCCC4CCNCC4)c3C)nc12 [Example 114, 5-Fluoro-4,4′-dimethyl-1′-(3-piperidin-4-yl-propyl)-1H,1′H-[2,5′]bibenzoimidazolyl]
< 5.00 | Fc1ccc2[nH]c(-c3cccc4c3ccn4CCCCC3CCNCC3)nc2c1 [Example 115, 5-Fluoro-2-[1-(4-piperidin-4-yl-butyl)-1H-indol-4-yl]-1H-benzoimidazole]
5.48 | Fc1cc(F)c2nc(-c3cccc4c3ccn4CCCCC3CCNCC3)[nH]c2c1 [Example 116, 4,6-Difluoro-2-[1-(4-piperidin-4-yl-butyl)-1H-indol-4-yl]-1H-benzoimidazole]
< 5.00 | Cc1cccc2[nH]c(-c3ccc4c(c3)ncn4CCCCC3CCNCC3)nc12 [Example 117, 4-Methyl-1′-(4-piperidin-4-yl-butyl)-1H,1′H-[2.5′]bibenzoimidazolyl]
5.52 | Cc1ccc2[nH]c(-c3ccc4c(c3)ncn4CCCCC3CCNCC3)nc2c1C [Example 118]
5.48 | CN1CCC(CCCCn2cnc3cc(-c4nc5cc(F)ccc5[nH]4)ccc32)CC1 [Example 120, 5-Fluoro-1′-[4-(1-methyl-piperidin-4-yl)-butyl]-1H,1′H-[2,5′]bibenzoimidazolyl]
5.52 | Cc1ccc2[nH]c(-c3ccc4c(c3)ncn4CCCCC3CCN(C)CC3)nc2c1C [Example 121, 4,5-Dimethyl-1′-[4-(1-methyl-piperidin-4-yl)-butyl]-1H,1′H-[2,5′]bibenzoimidazolyl]
5.78 | Cc1cccc2[nH]c(-c3ccc4ncn(CCCCC5CCNCC5)c4c3)nc12 [Example 122, 4-Methyl-3′-(4-piperidin-4-yl-butyl)-1H,3′H-[2,5′]bibenzoimidazolyl]
